Earlier results, collected in patent US20250099443A1, “METHODS FOR SYNTHESIZING ALEUTIANAMINE AND ANALOGS THEREOF” (California Institute of Technology, priority 2023, published 2025).

Test system: human pancreatic adenocarcinoma cell line PANC-1

O=C1C2=C3C4=[N+](CCc5c[nH]c1c54)[C@@H]1C[C@]34S[C@@H](C=C4C=C1Br)N2 [Aleutianamine]
IC50 (human pancreatic adenocarcinoma cell line PANC-1, read-out: IC50 against PANC-1): 25 nM
potency against PANC-1 relative to gemcitabine (times greater than that of gemcitabine): over 160 times
